This note sets out measurements from patent US12599672B2, “KRAS proteolysis targeting chimeras” (PAQ Therapeutics Inc., priority 2023, dated 2026).

Format in all cases: cell-based
Assay [1] addresses T1, KRAS G12D (Homo sapiens, UniProt P01116, G12D).
T1 construct: AsPc-1-KRAS (G12D)-HiBit-KI cell (Pharmaron); host or cells: AsPc-1-KRAS (G12D)-HiBit-KI cells (HiBiT knock-in at the endogenous KRAS locus)
The experiment in a line: KRAS G12D HiBit assay. To be noted: AsPc-1-KRAS (G12D)-HiBit-KI cell, compound treatment for 24 hours; for DC50: absolute DC50. The gist of the method:
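Cells were treated for 24 h with compounds in a 3-fold, 10-point dilution series from a 0.3 mM DMSO stock, then equilibrated 15 min at room temperature. KRAS G12D HiBiT levels were read by luminescence after lytic Nano-Glo HiBiT reagent with LgBiT; inhibition calculated relative to 0.1% DMSO high control.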

In assay [2] the target is T2, KRAS G12V (Homo sapiens, UniProt P01116, G12V).
T2 construct: SW620-KRAS (G12V)-HiBit-KI cell (Pharmaron); host or cells: SW620-KRAS (G12V)-HiBit-KI cells (HiBiT knock-in at the endogenous KRAS locus)
T2 sequence (P01116 1-188 isoform P01116-2 G12V): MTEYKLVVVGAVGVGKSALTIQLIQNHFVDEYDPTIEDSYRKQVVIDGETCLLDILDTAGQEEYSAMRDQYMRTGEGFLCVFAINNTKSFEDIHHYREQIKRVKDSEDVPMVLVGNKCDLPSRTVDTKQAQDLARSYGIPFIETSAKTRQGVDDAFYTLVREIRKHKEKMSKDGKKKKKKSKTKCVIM
Kind of assay: KRAS G12V HiBit assay. To be noted: SW620-KRAS (G12V)-HiBit-KI cells, compound treatment for 24 hours. The gist of the method: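 HiBiT-tagged KRAS G12V cells treated 24 h with compound in a 3-fold, 10-point series (0.3 mM DMSO stock); lytic HiBiT reagent with LgBiT added after 15 min room-temperature equilibration. Degradation calculated against 0.1% DMSO high control.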
(With HiBiT, luminescence reflects the tagged protein that the partner subunit can reach.)

Assay [3] addresses T3, KRAS (Homo sapiens, UniProt P01116).
T3 construct: endogenous in cells; host or cells: KE39 (KRAS amplified) cells
Kind of assay: KRASamp MSD assay. As to conditions: KE39 (KRAS amplified) cells, treated with test compounds for 24 hr, MSD readout of KRAS degradation. The gist of the method: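 KRAS-amplified KE39 cells treated with compound for 24 hr, then lysed in RIPA buffer with protease/phosphatase inhibitors. KRAS protein measured by MSD sandwich immunoassay against a recombinant WT KRAS standard curve; DC50 derived from curve fitting of degradation.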

Setting [4] is: numeric bounds given in place of class symbols.

T1 sequence (P01116 1-188 isoform P01116-2 G12D): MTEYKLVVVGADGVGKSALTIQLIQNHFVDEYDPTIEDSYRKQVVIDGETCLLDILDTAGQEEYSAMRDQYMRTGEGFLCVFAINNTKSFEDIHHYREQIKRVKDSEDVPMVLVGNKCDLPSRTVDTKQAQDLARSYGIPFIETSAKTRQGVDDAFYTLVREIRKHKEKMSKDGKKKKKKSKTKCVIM
T3 sequence (P01116 1-188 isoform P01116-2): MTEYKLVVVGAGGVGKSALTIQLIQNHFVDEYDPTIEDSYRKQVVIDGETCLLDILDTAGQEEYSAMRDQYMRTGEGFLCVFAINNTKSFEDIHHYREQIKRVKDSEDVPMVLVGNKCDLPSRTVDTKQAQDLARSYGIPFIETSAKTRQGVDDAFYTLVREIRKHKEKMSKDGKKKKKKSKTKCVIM

In the case of `Cn1c(=O)n(C2CCC(=O)NC2=O)c2ccc(C3CCN(C4CC5(CCN(C(=O)OC[C@@H]6CC[C@]7(COc8nc(N9CCC[C@@](C)(O)C9)c9cnc(-c%10cc(O)cc%11ccc(F)cc%10%11)c(F)c9n8)CCCN67)CC5)C4)CC3)cc21` (stereo partly drawn) [Compound 438, ((3S,7aS)-7a-(((8-fluoro-7-(7-fluoro-3-hydroxynaphthalen-1-yl)-4-((R)-3-hydroxy-3-methylpiperidin-1-yl)pyrido[4,3-d]pyrimidin-2-yl)oxy)methyl)hexahydro-1H-pyrrolizin-3-yl)methyl 2-(4-(1-(2,6-dioxopiperidin-3-yl)-3-methyl-2-oxo-2,3-dihydro-1H-benzo[d]imidazol-5-yl)piperidin-1-yl)-7-azaspiro[3.5]nonane-7-carboxylate], the DC50 in assay [1] (class symbols) is < 100 nM; in assay [2] (class symbols) it was < 10 nM; in assay [3] it was < 1 nM.

Turning to `CCc1c(F)ccc2cc(O)cc(-c3ncc4c(N5CCN6CCCC6C5)nc(OC[C@@]56CCCN5[C@H](COC(=O)N5CCC7(CC5)CC(N5CCC(c8ccc9c(c8)n(C)c(=O)n9C8CCC(=O)NC8=O)CC5)C7)CC6)nc4c3F)c12` (stereo partly drawn) [Compound 345, ((3S,7aS)-7a-(((7-(8-ethyl-7-fluoro-3-hydroxynaphthalen-1-yl)-8-fluoro-4-(hexahydropyrrolo[1,2-a]pyrazin-2(1H)-yl)pyrido[4,3-d]pyrimidin-2-yl)oxy)methyl)hexahydro-1H-pyrrolizin-3-yl)methyl 2-(4-(1-(2,6-dioxopiperidin-3-yl)-3-methyl-2-oxo-2,3-dihydro-1H-benzo[d]imidazol-5-yl)piperidin-1-yl)-7-azaspiro[3.5]nonane-7-carboxylate], the DC50 in assay [1] (setting [4]) was > 100 nM; in assay [2] (class symbols) it was > 100 nM; in assay [3], 1 to 10 nM.

With `C#Cc1c(F)ccc2cc(O)cc(-c3ncc4c(N5CCC[C@@](C)(O)C5)nc(OC[C@@]56CCCN5[C@H](COC(=O)N5CCC(CC#Cc7cccc8c7n(C)c(=O)n8C7CCC(=O)NC7=O)CC5)CC6)nc4c3F)c12` (stereo partly drawn) [Compound 374, ((3S,7aS)-7a-(((7-(8-ethynyl-7-fluoro-3-hydroxynaphthalen-1-yl)-8-fluoro-4-((R)-3-hydroxy-3-methylpiperidin-1-yl)pyrido[4,3-d]pyrimidin-2-yl)oxy)methyl)hexahydro-1H-pyrrolizin-3-yl)methyl 4-(3-(1-(2,6-dioxopiperidin-3-yl)-3-methyl-2-oxo-2,3-dihydro-1H-benzo[d]imidazol-4-yl)prop-2-yn-1-yl)piperidine-1-carboxylate], the DC50 was 100 to 300 nM in assay [1] (class symbols), 10 to 100 nM in assay [2] (class symbols) and 1 to 10 nM in assay [3].

Consider `CCc1c(F)ccc2cc(O)cc(-c3ncc4c(N5CCC[C@@](C)(O)C5)nc(OC[C@@]56CCCN5[C@H](COC(=O)N5CCC(OCCC#Cc7ccc8c(c7)n(C)c(=O)n8C7CCC(=O)NC7=O)CC5)CC6)nc4c3F)c12` (stereo partly drawn) [Compound 371, ((3S,7aS)-7a-(((7-(8-ethyl-7-fluoro-3-hydroxynaphthalen-1-yl)-8-fluoro-4-((R)-3-hydroxy-3-methylpiperidin-1-yl)pyrido[4,3-d]pyrimidin-2-yl)oxy)methyl)hexahydro-1H-pyrrolizin-3-yl)methyl 4-((4-(1-(2,6-dioxopiperidin-3-yl)-3-methyl-2-oxo-2,3-dihydro-1H-benzo[d]imidazol-5-yl)but-3-yn-1-yl)oxy)piperidine-1-carboxylate], for which the DC50 is < 100 nM in assay [1] (class symbols), < 10 nM in assay [2] (class symbols) and 1 to 10 nM in assay [3].

As for `CCc1c(F)ccc2cc(O)cc(-c3ncc4c(N5CCC[C@@](C)(N)C5)nc(OC[C@@]56CCCN5[C@H](COC(=O)N5CCC7(CC5)CC(N5CCC(c8ccc9c(c8)n(C)c(=O)n9C8CCC(=O)NC8=O)CC5)C7)CC6)nc4c3F)c12` (stereo partly drawn) [Compound 479, ((3S,7aS)-7a-(((4-((R)-3-amino-3-methylpiperidin-1-yl)-7-(8-ethyl-7-fluoro-3-hydroxynaphthalen-1-yl)-8-fluoropyrido[4,3-d]pyrimidin-2-yl)oxy)methyl)hexahydro-1H-pyrrolizin-3-yl)methyl 2-(4-(1-(2,6-dioxopiperidin-3-yl)-3-methyl-2-oxo-2,3-dihydro-1H-benzo[d]imidazol-5-yl)piperidin-1-yl)-7-azaspiro[3.5]nonane-7-carboxylate], the DC50 in assay [1] (setting [4]) was > 100 nM; in assay [2] (class symbols), > 100 nM; in assay [3] it was ≥ 10 nM.

With `C#Cc1c(F)ccc2cc(O)cc(-c3ncc4c(N5CCC[C@@](C)(O)C5)nc(OCC5(CN6CCN(CC7CCN(c8ccc9c(c8)n(C)c(=O)n9C8CCC(=O)NC8=O)CC7)CC6)CC5)nc4c3F)c12` (stereo partly drawn) [Compound 14, 3-[5-[4-[[4-[[1-[[7-(8-Ethynyl-7-fluoro-3-hydroxy-1-naphthyl)-8-fluoro-4-[(3R)-3-hydroxy-3-methyl-1-piperidyl]pyrido[4,3-d]pyrimidin-2-yl]oxymethyl]cyclopropyl]methyl]piperazin-1-yl]methyl]-1-piperidyl]-3-methyl-2-oxo-benzimidazol-1-yl]piperidine-2,6-dione], the DC50 in assay [1] (class symbols) is < 100 nM; in assay [2] (class symbols), < 10 nM; in assay [3], < 1 nM. Moreover, the Dmax in assay [1] (class symbols) is > 50%.

As to `CCc1c(F)ccc2cc(O)cc(-c3ncc4c(N5CCC[C@@](C)(O)C5)nc(OC[C@@]56CCCN5[C@H](COC(=O)N5CCC(OC7CCN(c8ccc9c(c8)n(C)c(=O)n9C8CCC(=O)NC8=O)CC7)CC5)CC6)nc4c3F)c12` (stereo partly drawn) [Compound 160, ((3S,7aS)-7a-(((7-(8-Ethyl-7-fluoro-3-hydroxynaphthalen-1-yl)-8-fluoro-4-((R)-3-hydroxyl-3-methylpiperidin-1-yl)pyrido[4,3-d]pyrimidin-2-yl)oxy)methyl)hexahydro-1H-pyrrolizin-3-yl)methyl 4-((1-(1-(2,6-dioxopiperidin-3-yl)-3-methyl-2-oxo-2,3-dihydro-1H-benzo[d]imidazol-5-yl)piperidin-4-yl)oxy)piperidine-1-carboxylate], the DC50 was < 100 nM in assay [1] (class symbols), < 10 nM in assay [2] (class symbols) and < 1 nM in assay [3].

`CCc1c(F)ccc2cc(O)cc(-c3ncc4c(N5CCC[C@@](C)(O)C5)nc(OC[C@]56CCCN5[C@H](CCCN5CCC(c7ccc8c(c7)n(C)c(=O)n8C7CCC(=O)NC7=O)CC5)CC6)nc4c3F)c12` (stereo partly drawn) [Compound 473, 3-(5-(1-(3-((3R,7aR)-7a-(((7-(8-Ethyl-7-fluoro-3-hydroxynaphthalen-1-yl)-8-fluoro-4-((R)-3-hydroxy-3-methylpiperidin-1-yl)pyrido[4,3-d]pyrimidin-2-yl)oxy)methyl)hexahydro-1H-pyrrolizin-3-yl)propyl)piperidin-4-yl)-3-methyl-2-oxo-2,3-dihydro-1H-benzo[d]imidazol-1-yl) piperidine-2,6-dione]: the DC50 was < 100 nM in assay [1] (class symbols), 10 to 100 nM in assay [2] (class symbols) and 1 to 10 nM in assay [3].

With `CCc1c(F)ccc2cc(O)cc(-c3ncc4c(N5CCC[C@@](C)(O)C5)nc(OC[C@@]56CCCN5C(CN5CCC(Cc7ccc8c(c7)n(C)c(=O)n8C7CCC(=O)NC7=O)CC5)CC6)nc4c3F)c12` (stereo partly drawn) [Compound 383, 3-(5-((1-(((7aS)-7a-(((7-(8-ethyl-7-fluoro-3-hydroxynaphthalen-1-yl)-8-fluoro-4-((R)-3-hydroxy-3-methylpiperidin-1-yl)pyrido[4,3-d]pyrimidin-2-yl)oxy)methyl)hexahydro-1H-pyrrolizin-3-yl)methyl)piperidin-4-yl)methyl)-3-methyl-2-oxo-2,3-dihydro-1H-benzo[d]imidazol-1-yl)piperidine-2,6-dione], the DC50 in assay [1] (class symbols) is < 100 nM; in assay [2] (numeric bounds) it was > 91.5 nM; in assay [3] it was ≥ 10 nM.

Turning to `C#Cc1c(F)ccc2cc(O)cc(-c3ncc4c(N5CCC[C@@](C)(O)C5)nc(OC[C@@]56CCCN5[C@H](COC(=O)N5CCC7(CCC7N7CCC(c8ccc9c(c8)n(C)c(=O)n9C8CCC(=O)NC8=O)CC7)CC5)CC6)nc4c3F)c12` (stereo partly drawn) [Compound 415, ((3S,7aS)-7a-(((7-(8-ethynyl-7-fluoro-3-hydroxynaphthalen-1-yl)-8-fluoro-4-((R)-3-hydroxy-3-methylpiperidin-1-yl)pyrido[4,3-d]pyrimidin-2-yl)oxy)methyl)hexahydro-1H-pyrrolizin-3-yl)methyl 1-(4-(1-(2,6-dioxopiperidin-3-yl)-3-methyl-2-oxo-2,3-dihydro-1H-benzo[d]imidazol-5-yl)piperidin-1-yl)-7-azaspiro[3.5]nonane-7-carboxylate], the DC50 is < 100 nM in assay [1] (class symbols), > 100 nM in assay [2] (class symbols) and ≥ 10 nM in assay [3].
